# In patent US10463644B2, “Uses of sesquiterpene lactone compounds and their derivatives in drugs preparation” (ACCENDATECH, priority 2013, dated 2019):
# Read-outs that look alike come from different tables or passages of the source.
# Columns and labels:
# [1] = tested on: IL-1β secreted by synoviocyte; assay: Content of IL-1β in culture supernatant of synoviocyte of RA model rats given test compound; assay type: in vivo; conditions: rat RA model, dose 30 mg/kg.2d; normal control 0.16 ± 0.034, NaCl 0.49 ± 0.136
# Procedure, shortened: (§1)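 Values reflect mediator secretion by synoviocytes taken from arthritic rats dosed at 30 mg/kg.2d. Normal and NaCl groups served as references.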
# cancer cells = assay: Survival rate of cancer cells after test compound is added (flow cytometry, Annexin V-FITC/PI, clinical specimen); assay type: cell-based, patient; conditions: Homo sapiens, 18 h, read-out: Survival rate (%) All cells (Stem cells and ordinary cells)
# Procedure, shortened: (§2)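 Ficoll-isolated mononuclear cells from patient specimens (e.g. AML) in serum-free IMDM at 1×10^6/mL were exposed to compound for 18 hours. Cells were stained for stem-cell markers (CD34+CD38+ for AML) plus Annexin V-FITC/PI, and apoptosis was read by flow cytometry within one hour.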
# [2] = tested on: PGE2 secreted by synoviocyte; assay: Content of PGE2 in culture supernatant of synoviocyte of RA model rats given test compound; assay type: in vivo; conditions: rat RA model, dose 30 mg/kg.2d; normal control 8.34 ± 1.29, NaCl 32.44 ± 10.32
# Procedure, shortened: as §1
# normal cells = assay: Survival rate of normal cells after test compound is added (flow cytometry, Annexin V-FITC/PI); assay type: cell-based; conditions: 18 h
# Procedure, shortened: as §2
# cancer stem cells = assay: Survival rate of cancer stem cells after test compound is added (flow cytometry, Annexin V-FITC/PI, clinical specimen); assay type: cell-based, patient; conditions: Homo sapiens, 18 h
# Procedure, shortened: as §2
# [3] = Head and neck squamous cell carcinomas
# [4] = read-out: Survival rate (%) All cells (Stem cells and ordinary cells)
# [5] = read-out: Survival rate (%) Stem cells
smiles,measurement,setting,value
[2H][C@@]1(CN(C)C)C(=O)O[C@@H]2[C@@H]3[C@@H](CCC34CC4)C3(CC[C@H]21)CC3 [Compound 46],Content of IL-1β in culture supernatant of synoviocyte (x ± s),[1],0.36 ± 0.067 ng/mL
same,viability at 10 µM,cancer cells; AML,88%
same,viability at 20 µM,cancer cells; AML,85%
same,viability at 10 µM,cancer cells; Brain glioma,91%
same,viability at 20 µM,cancer cells; Brain glioma,89%
same,viability at 10 µM,cancer cells; Brain tumor,91%
same,viability at 20 µM,cancer cells; Brain tumor,89%
same,viability at 10 µM,cancer cells; Breast cancer,89%
same,viability at 20 µM,cancer cells; Breast cancer,86%
same,viability at 10 µM,cancer cells; CLL,88%
same,viability at 20 µM,cancer cells; CLL,89%
same,viability at 10 µM,cancer cells; CML,93%
same,viability at 20 µM,cancer cells; CML,86%
same,viability at 10 µM,cancer cells; Children hepatoblastoma,91%
same,viability at 20 µM,cancer cells; Children hepatoblastoma,88%
same,viability at 10 µM,cancer cells; Colon adenocarcinoma,89%
same,viability at 20 µM,cancer cells; Colon adenocarcinoma,86%
same,viability at 10 µM,cancer cells; Colorectal cancer,93%
same,viability at 20 µM,cancer cells; Colorectal cancer,92%
same,viability at 10 µM,cancer cells; Gastric cancer,94%
same,viability at 20 µM,cancer cells; Gastric cancer,87%
same,viability at 10 µM,cancer cells; Gastrointestinal tumor,89%
same,viability at 20 µM,cancer cells; Gastrointestinal tumor,86%
same,viability at 10 µM,cancer cells; Glioma,91%
same,viability at 20 µM,cancer cells; Glioma,84%
same,viability at 10 µM,cancer cells; [3],91%
same,viability at 20 µM,cancer cells; [3],88%
same,viability at 10 µM,cancer cells; Laryngeal cancer,87%
same,viability at 20 µM,cancer cells; Laryngeal cancer,83%
same,viability at 10 µM,cancer cells; Liver cancer,87%
same,viability at 20 µM,cancer cells; Liver cancer,83%
same,viability at 10 µM,cancer cells; Lung adenocarcinoma,93%
same,viability at 20 µM,cancer cells; Lung adenocarcinoma,86%
same,viability at 10 µM,cancer cells; Lung cancer,88%
same,viability at 20 µM,cancer cells; Lung cancer,89%
same,viability at 10 µM,cancer cells; Malignant melanoma,92%
same,viability at 20 µM,cancer cells; Malignant melanoma,89%
same,viability at 10 µM,cancer cells; Nasopharynx cancer,88%
same,viability at 20 µM,cancer cells; Nasopharynx cancer,81%
same,viability at 10 µM,cancer cells; Ovarian cancer,88%
same,viability at 20 µM,cancer cells; Ovarian cancer,81%
same,viability at 10 µM,cancer cells; Pancreatic cancer,88%
same,viability at 20 µM,cancer cells; Pancreatic cancer,85%
same,viability at 10 µM,cancer cells; Prostate cancer,94%
same,viability at 20 µM,cancer cells; Prostate cancer,87%
same,viability at 10 µM,cancer cells; Retinoblastoma,91%
same,viability at 20 µM,cancer cells; Retinoblastoma,87%
same,viability at 10 µM,cancer cells; Skin cancer,92%
same,viability at 20 µM,cancer cells; Skin cancer,89%
same,Content of PGE2 in culture supernatant of synoviocyte (x ± s),[2],24.74 ± 2.64 ng/mL
same,viability at 10 µM,normal cells; [4],95%
same,viability at 10 µM,normal cells; [5],94%
same,viability at 20 µM,normal cells; [4],94%
same,viability at 20 µM,normal cells; [5],92%
same,viability at 10 µM,cancer stem cells; AML,82%
same,viability at 20 µM,cancer stem cells; AML,74%
same,viability at 10 µM,cancer stem cells; Brain glioma,88%
same,viability at 20 µM,cancer stem cells; Brain glioma,81%
same,viability at 10 µM,cancer stem cells; Brain tumor,88%
same,viability at 20 µM,cancer stem cells; Brain tumor,81%
same,viability at 10 µM,cancer stem cells; Breast cancer,82%
same,viability at 20 µM,cancer stem cells; Breast cancer,76%
same,viability at 10 µM,cancer stem cells; CLL,82%
same,viability at 20 µM,cancer stem cells; CLL,76%
same,viability at 10 µM,cancer stem cells; CML,85%
same,viability at 20 µM,cancer stem cells; CML,79%
same,viability at 10 µM,cancer stem cells; Children hepatoblastoma,84%
same,viability at 20 µM,cancer stem cells; Children hepatoblastoma,78%
same,viability at 10 µM,cancer stem cells; Colon adenocarcinoma,84%
same,viability at 20 µM,cancer stem cells; Colon adenocarcinoma,74%
same,viability at 10 µM,cancer stem cells; Colorectal cancer,86%
same,viability at 20 µM,cancer stem cells; Colorectal cancer,78%
same,viability at 10 µM,cancer stem cells; Gastric cancer,87%
same,viability at 20 µM,cancer stem cells; Gastric cancer,76%
same,viability at 10 µM,cancer stem cells; Gastrointestinal tumor,82%
same,viability at 20 µM,cancer stem cells; Gastrointestinal tumor,76%
same,viability at 10 µM,cancer stem cells; Glioma,87%
same,viability at 20 µM,cancer stem cells; Glioma,75%
same,viability at 10 µM,cancer stem cells; [3],84%
same,viability at 20 µM,cancer stem cells; [3],78%
same,viability at 10 µM,cancer stem cells; Laryngeal cancer,81%
same,viability at 20 µM,cancer stem cells; Laryngeal cancer,75%
same,viability at 10 µM,cancer stem cells; Liver cancer,81%
same,viability at 20 µM,cancer stem cells; Liver cancer,75%
same,viability at 10 µM,cancer stem cells; Lung adenocarcinoma,85%
same,viability at 20 µM,cancer stem cells; Lung adenocarcinoma,79%
same,viability at 10 µM,cancer stem cells; Lung cancer,82%
same,viability at 20 µM,cancer stem cells; Lung cancer,76%
same,viability at 10 µM,cancer stem cells; Malignant melanoma,85%
same,viability at 20 µM,cancer stem cells; Malignant melanoma,77%
same,viability at 10 µM,cancer stem cells; Nasopharynx cancer,79%
same,viability at 20 µM,cancer stem cells; Nasopharynx cancer,72%
same,viability at 10 µM,cancer stem cells; Ovarian cancer,79%
same,viability at 20 µM,cancer stem cells; Ovarian cancer,72%
same,viability at 10 µM,cancer stem cells; Pancreatic cancer,85%
same,viability at 20 µM,cancer stem cells; Pancreatic cancer,79%
same,viability at 10 µM,cancer stem cells; Prostate cancer,87%
same,viability at 20 µM,cancer stem cells; Prostate cancer,76%
same,viability at 10 µM,cancer stem cells; Retinoblastoma,82%
same,viability at 20 µM,cancer stem cells; Retinoblastoma,73%
same,viability at 10 µM,cancer stem cells; Skin cancer,85%
same,viability at 20 µM,cancer stem cells; Skin cancer,77%
